Earlier results, collected in patent US6329550A, “Amidomalonamides useful as inhibitors of MMP of matrix metalloproteinase” (Aventis Pharmaceuticals Inc., priority 1999, dated 2001).

Test system: B16-BL6 murine melanoma
Settings: intraperitoneal administration; lung colonies produced by intravenous injection of B16-BL6 murine melanoma in C57BL/6N mice

CNC(=O)[C@H](Cc1ccccc1)NC(=O)[C@H](CC(C)C)[C@H](CSc1cccs1)C(=O)NO [batimastat]
growth and metastatic spread and number of lung colonies: significant inhibition
